Assays:
Huh6 and HepG2 cells = experiment: Clonogenicity assay; assay type: cell-based, human; conditions: GSK-126 3 and 4 μM for Huh6 and HepG2; ATR 8 μM; SIM 4 μM; 10 days
Protocol: Huh6 and HepG2 cells were seeded at 500 and 1000 cells/well respectively in 12-well plates. After attachment, cells were treated with drugs.
Following incubation at 37° C. for 10 days, the cells were fixed with 4% PFA and stained with 0.05% crystal violet. Reading under the Fusion FX (Vilber Lourmat).

[1] = tested on: NEM157i, SU-DIPG-IVi and NEM163i DMG cells; experiment: Proliferation / cell viability assay (Sulforhodamine B) in DMG cell lines; assay type: cell-based, human; conditions: SU-DIPG-IVi and NEM157i; up to 30 μM; absence of GSK-126
Protocol: Cell growth was measured with the In vitro Toxicology Assay kit (Sulforhodamine B, Sigma Aldrich, Saint Quentin Fallavier, France) according to manufacturer's instructions. Cells were plated at a density of 2000 cells per well in 96-well plates in triplicates. Absorbance was measured at 565 nm using the CLARIOstar multiplate reader (BMG Labtech, Champigny-sur-Marne, France) at indicated time points.

Huh6 cells = experiment: Huh6 tumor xenografts in NSG mice; assay type: in vivo, NOD/LtSz-scid IL2R gamma null (NSG) mice; conditions: intraperitoneal; GSK-126 50 mg/kg, ATR 20 mg/kg 3-times a week; cisplatin 1 mg/kg twice a week
Protocol: NOD/LtSz-scid IL2R gamma null (NSG) mice were bred in standard conditions compliant with regulatory bodies (French government). Sterilized food and water were accessible ad libitum. One million of Huh6 cells in 50% of Matrigel were subcutaneously injected in a total volume of 100 μl in the right flank of 8- to 9-week-old female mice (26-32 g; APAFIS #32917-2021121316283534 v2, Agreement #B33063916, Ministère de l'Enseignement Supérieur, de la Recherche et de l'Innovation).
Tumor growth was monitored by caliper measurement until tumors reached an average volume of 250 mm3 (at day 12, see arrow). […] The vehicle (PBS with 5% DMSO) was injected 3-times a week. Tumor growth was monitored during 16 additional days until tumors control reached a size of 2000 mm3. Thus, all mice were euthanized. Blood was collected from all euthanatized mice and circulating ASAT, ALAT, creatinine, and urea were measured to evaluate the toxicity of the different treatments on the liver and kidneys.

[2] = tested on: NEM157i, NEM163i and primary BXdmg1 cells; experiment: DMG cell migration, wound scratch assay (IncuCyte); assay type: cell-based, human
Protocol: 2×10^4 cells/well were placed in a 96-well and incubated for 24h. An IncuCyte Wound Maker (96-pin wound making tool) was used to make scratches.
Migration was monitored by using the IncuCyte S3 live-cell analysis system (Essen BioScience, Ltd, Royston Hertfordshire, United Kingdom). […] Following functions have been used to optimize visibility of the cells: greyscale mode, bichrome mode, negative, contrast/luminosity, exposition/gamma, negative.

[3] = tested on: Huh6 and HepG2 hepatoblastoma cells; experiment: Growth and viability of hepatoblastoma cells (Huh6 and HepG2), 2D and 3D spheroid; assay type: cell-based, human
Protocol: (§1) For 2D culture, a total of 2,000 cells/well for Huh6 and 3,000 cells/well for HepG2 were seeded in 96-well microtiter plates. Cell growth was measured at 24 h, 48h, 72h or 96h after genetic manipulation and at 48h or 72h after drug treatment using the in vitro MTS assay Kit or Sulforhodamine B (SRB, Absorbance at 565 nm) assay (Sigma) following manufacturer's instructions. For 3D culture, spheroids were formed as described above and microplates were incubated in an IncuCyte® S3 live cell analysis system and scanned every 8 hours. For genetic manipulation, the lentiviral transductions or the gene depletions were done before the plating. For drug treatments, depending on the experiment and the drug, spheroids were treated at day 4 or 5 for 48h or 72h. Cell viability assay in spheroids was done using 1 μM calcein AM (BioLegend) and 2 μM ethidium homodimer 1 (Sigma) for 30 minutes at 37° C. Spheroids were imaged using an IncuCyte® S3 live cell analysis system. For all cell viability assays, drugs were used at half maximal inhibitory concentration (IC50).

[4] = rat; cited from earlier work
[5] = tested on: histone H3K27me3 in breast and prostate cancer cells; conditions: cited from earlier work
HepG2 cells = experiment: Cell viability assay (CellTiter 96 AQueous One / MTS) in HepG2; assay type: cell-based, human
Protocol: as §1

CC(C)c1c(C(=O)Nc2ccccc2)c(-c2ccccc2)c(-c2ccc(F)cc2)n1CC[C@@H](O)C[C@@H](O)CC(=O)O [Atorvastatin]
proliferation and survival of hepatoblastoma cells (clonogenic cell assay) (Huh6 and HepG2 cells): little effect
effect on DMG cell proliferation, inhibitor alone [1]: no effect
development of hepatoblastoma in mice (tumor volume) (Huh6 cells): no effect
migration compared to DMSO [2]: slowed
concentration with antitumor effect, statin alone ([3]; 72 h): ≥ 50 µM

CCCc1cc(C)[nH]c(=O)c1CNC(=O)c1cc(-c2ccnc(N3CCN(C)CC3)c2)cc2c1cnn2C(C)C [GSK343, N-[(6-methyl-2-oxo-4-propyl-1H-pyridin-3-yl)methyl]-6-[2-(4-methylpiperazin-1-yl)pyridin-4-yl]-1-propan-2-ylindazole-4-carboxamide]
clearance [4]: high clearance
histone H3K27me3 level [5]: suppress

CN(C/C=C/C#CC(C)(C)C)Cc1cccc2ccccc12 [Terbinafine]
effect on DMG cell proliferation, inhibitor alone [1]: no effect

N.N.[Cl][Pt][Cl] [cisplatin]
development of hepatoblastoma in mice (tumor volume) (Huh6 cells): impeded tumor growth
IC50 (HepG2 cells): 12 µM

Cc1cc(C)c(CNC(=O)c2cc(-c3ccc(N4CCN(C)CC4)nc3)cc3c2cnn3C(C)C)c(=O)[nH]1 [GSK926, N-[(4,6-dimethyl-2-oxo-1H-pyridin-3-yl)methyl]-6-[6-(4-methylpiperazin-1-yl)pyridin-3-yl]-1-propan-2-ylindazole-4-carboxamide]
histone H3K27me3 level [5]: suppress

CCN(c1cc(-c2ccc(CN3CCOCC3)cc2)cc(C(=O)NCc2c(C)cc(C)[nH]c2=O)c1C)C1CCOCC1 [Tazemetostat, N-[(4,6-dimethyl-2-oxo-1H-pyridin-3-yl)methyl]-3-[ethyl(oxan-4-yl)amino]-2-methyl-5-[4-(morpholin-4-ylmethyl)phenyl]benzamide]
effective concentrations on growth of hepatoblastoma cells ([3]; 48 h): above 20 μM
sensitivity of hepatoblastoma cells in presence of Simvastatin or Atorvastatin ([3]; 72 h, 8 μM Atorvastatin or 4 μM Simvastatin): significantly potentiates

CCC(C)(C)C(=O)O[C@H]1C[C@@H](C)C=C2C=C[C@H](C)[C@H](CC[C@@H]3C[C@@H](O)CC(=O)O3)[C@H]21 [Simvastatin]
concentration with antitumor effect, statin alone ([3]; 72 h): ≥ 20 µM

COCCNC(=O)Nc1ccc2nc(-c3cccs3)c(-c3cccs3)nc2c1 [ACSS2 inhibitor]
effect on DMG cell proliferation, inhibitor alone [1]: no effect

Reference: US20240408081A1, “NOVEL SYNERGISTIC COMBINATIONS AND METHODS OF USE THEREOF FOR TREATING CANCERS” (UNIVERSITE DE BORDEAUX, priority 2021, published 2024)
